Earlier results as cited in patent publication US20250367260A1, “TIRZEPATIDE COMPOSITIONS AND PREPARATION METHOD” (Galenicum Health S.L.U., priority 2024, published 2025).

Row | SMILES | pKa
1 | O=S(=O)(O)CC(O)CN(CCO)CCO (stereo not drawn) [DIPSO, 3-(N,N-Bis[2-hydroxyethyl]amino)-2-hydroxypropanesulfonic acid] | ≈ 7.6
2 | O=S(=O)(O)CCN1CCN(CCO)CC1 [HEPES, 4-(2-hydroxyethyl)-1-piperazineethanesulfonic acid] | ≈ 7.5
3 | O=S(=O)(O)CCCN1CCN(CCO)CC1 [HEPPS, 4-(2-Hydroxyethyl)-1-piperazinepropanesulfonic acid] | ≈ 8.1
4 | O=S(=O)(O)CC(O)CNC(CO)(CO)CO (stereo not drawn) [TAPSO, 3-[N-Tris(hydroxymethyl)methylamino]-2-hydroxypropanesulfonic acid] | ≈ 7.6

Now from value to compound:

Row | pKa | SMILES
5 | ≈ 7.4 | O=S(=O)(O)CCNC(CO)(CO)CO [TES, N-[Tris(hydroxymethyl)methyl]-2-aminoethanesulfonic acid]
6 | ≈ 8.2 | O=C(O)CNC(CO)(CO)CO [Tricine, N-tris(hydroxymethyl)methylglycine]
